From patent US20220257620A1, “USE OF CERTAIN PHOSPHATIDYLCHOLINES CONTAINING LONG CHAIN POLYUNSATURATED FATTY ACIDS AS NEUROPROTECTIVE AGENTS” (KANNALIFE SCIENCES, INC., priority 2019, published 2022) come the findings set out here.

As usually defined, the IC50 is the concentration that inhibits the measured activity by half. By EC50 is commonly meant the concentration that produces a half-maximal response.

The test system of test [1] is dissociated hippocampal cultures. Nature of the test: Cell death assay (propidium iodide), protection from 30 mM ethanol. The settings on record: Table 3, 5 hour test period, co-treatment with 30 mM ethanol; for IC50: read-out: Propidium Iodide (IC50 + SE). The format is cell-based, rat.
The subject of test [2] is dissociated hippocampal cultures (primary neurons). Nature of the test: Neuronal viability assay (CFDA), neuroprotection from 30 mM ethanol. Format: cell-based, rat. The settings on record: Table 3, 5 hour test period, co-treatment with 30 mM ethanol; for EC50: read-out: CFDA (EC50 + SE). An excerpt:
Pre-coated poly-D-lysine coated plates will be used because of the adherence and survival of hippocampal neurons and glia on this matrix support.
Carboxyfluorescein (CFDA) was used a vital stain for all neuroprotection studies. With the use of the CytoFluor fluorimeter, the CFDA assay was employed to assess the viability of neurons. […] Neuronal specificity is obtained relative to astrocytes because the cleaved dye is extruded extracellularlly by glia with time, while dye in neurons remains intracellular.

As to PC 16:0-18:2 [reference compound], in test [1], the “Propidium Iodide (IC50 + SE)” value was “Inactive”. For the same compound, in test [2], the “CFDA (EC50 + SE)” value is given as “Inactive”.

For the compound `CCCCC/C=C\C/C=C\CCCCCCCC(=O)OCC(COP(=O)([O-])OCC[N+](C)(C)C)OC(=O)CCCCCCC/C=C\C/C=C\CCCCC` (stereo not shown) [PC 18:2-18:2, 1,2-dilinoleoyl-phosphatidylcholine], in test [1], the IC50 is 0.044 ± 0.015 nM. Further, the concentration for a half-maximal effect (EC50) in test [2] turned out to be 0.067 ± 0.022 nM.

For `CC/C=C\C/C=C\C/C=C\C/C=C\C/C=C\C/C=C\CCC(=O)OC[C@H](COP(=O)([O-])OCC[N+](C)(C)C)OC(=O)CC/C=C\C/C=C\C/C=C\C/C=C\C/C=C\C/C=C\CC` [PC 22:6-22:6], the IC50 in test [1] is 0.21 ± 0.053 nM. The EC50 in test [2] was 0.283 ± 0.046 nM.

For `CCCCC/C=C\C/C=C\C/C=C\C/C=C\CCCC(=O)OC[C@H](COP(=O)([O-])OCC[N+](C)(C)C)OC(=O)CCC/C=C\C/C=C\C/C=C\C/C=C\CCCCC` [PC 20:4-20:4, 1,2-diarachidonyl-phosphatidylcholine], the 50% inhibitory concentration (IC50) in test [1] is 0.0012 ± 0.00012 nM. Further, in test [2], the EC50 turned out to be 0.001 ± 8e-05 nM.

Regarding `CC/C=C\C/C=C\C/C=C\CCCCCCCC(=O)OC[C@H](COP(=O)([O-])OCC[N+](C)(C)C)OC(=O)CCCCCCC/C=C\C/C=C\C/C=C\CC` [PC 18:3-18:3, 1,2-dilinolenoyl-phosphatidylcholine], the half-maximal inhibitory concentration (IC50) in test [1] is 0.204 ± 0.088 nM. Further, the half-maximal effective concentration (EC50) in test [2] amounted to 0.202 ± 0.022 nM.
